Experimental findings from the METLIN SMRT retention time set (Domingo-Almenara et al. 2019) are described below.

The nature of this data set: gradient 5% acetonitrile 3 min, to 50% in 2 min, to 85% in 15 min, held 3 min, 100 µL/min. The note with it: column: Zorbax Extend-C18 2.1 x 50 mm; eluents: water / acetonitrile, 0.1% formic acid. A digest of the protocol: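 Pure standards were run in mixtures of ~100 molecules by HPLC coupled to a quadrupole time-of-flight mass spectrometer. The column was a Zorbax Extend-C18 (2.1 × 50 mm, 1.8 μm) at 100 μL/min, with water and acetonitrile each containing 0.1% formic acid, in positive and negative ionization mode. Dead and dwell volumes were 40 μL and 900 μL. Retention time was taken from computationally picked adduct peaks, each manually inspected, with data collected over 3 months.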
The compound `CCOC(=O)c1ccc(NC(=O)C2CCCN2S(=O)(=O)c2cc(C(=O)OC)n(C)c2)cc1` (centres undefined) showed an RP-LC retention time of 900 s. The compound `Nc1cc(C2CCN(C(=O)Nc3ccc(Br)cc3F)CC2)no1` registered an RP-LC retention time of 736 s. With `CCOc1ccc(NS(=O)(=O)c2cc(-c3cc(C(F)(F)F)on3)sc2C)cc1` the figure was 1120 s; with `Fc1ccc(-c2nnc(Cc3nc(-c4ccc(Br)cc4)no3)o2)cc1`, 1110 s; with `CC(=O)Cc1nsc(NC(=O)c2cc(-c3cccc(C(F)(F)F)c3)oc2C)n1`, 657 s.

Regarding `COc1ccc(OCC(=O)Nc2nc(-c3ccc(Cl)cc3)cs2)cc1`, the RP-LC retention time was 1140 s. With `CC(=O)Nc1cccc2c(C(=O)NCCC(C)C)ccnc12` the figure was 777 s; with `Cn1cnc2c(C(=O)Nc3ccc(F)c(Cl)c3)nn(-c3ccccc3)c2c1=O`, 976 s; with `CC(=O)N1CC(c2nnc(C(C)C)o2)C2(CCOCC2)C1` (centres undefined), 571 s. The compound `Cc1cc(C)n(-c2ccnc(N3CCN(CC(=O)NC(C)C)CC3)n2)n1` came in with an RP-LC retention time of 624 s.

`O=C(Nc1ccc(N2CCN(c3ccccc3)C2=O)nc1)c1cccs1` registered an RP-LC retention time of 836 s. Take `CN(C)C(=O)COC(=O)Cc1ccc(OC(=O)c2ccc(N=C(N)N)cc2)cc1`: the RP-LC retention time is 651 s. For `O=C(Nc1cccc(-c2nc3ncccc3o2)c1)[C@@H]1OCCN(C2CC2)[C@H]1c1ccccc1` the value was 678 s; for `Cc1cc(=O)n(CC(=O)Nc2ccc(F)cc2)c(-c2ccc(F)cc2)n1`, 1040 s. For `C=CCN1C(=O)COc2ccc(-c3csc(NC(=O)c4ccco4)n3)cc21` the value was 882 s. Take `Cc1cccc(C)c1NS(=O)(=O)c1ccc(-c2c(C)noc2C)cc1`: the RP-LC retention time is 964 s.

The compound `CCCC(=O)N1CCC(c2nc(CCOCC3CC3)no2)C1` (centres undefined) gave an RP-LC retention time of 729 s. With `COc1ccc2[nH]cc(CCO)c2c1` the figure was 660 s; with `O=C(c1cc(-c2ccc3c(c2)OCO3)nc2ccccc12)N1CCN(c2ccccn2)CC1`, 674 s; with `CCc1nccn1Cc1noc(-c2ccccc2Cl)n1`, 564 s. For `CC(=O)Nc1cccc2c(C(=O)NC3CCCC3)ccnc12` the value was 719 s; for `COc1ccc(NC(=O)C2CCN(S(=O)(=O)c3cc4c(cc3C)NC(=O)CO4)CC2)cc1OC`, 712 s; for `CC1=NS(=O)(=O)N(Cc2ccccc2)C=C1C(=O)OCc1ccc(Br)cc1`, 1200 s. Turning to `O=C(Cn1c(=O)c2cc(C3CC3)nn2c2ncccc21)N1CCCc2ccccc21`, the RP-LC retention time is 832 s.

For `Cc1ccc2c(Nc3ccccc3F)c(C(=O)N3CCCC3)cnc2n1`, the RP-LC retention time amounted to 555 s. `CSc1cccc(Nc2c(C(=O)N3CCSCC3)cnc3nc(C)ccc23)c1`: the RP-LC retention time is 581 s. With `CC(NC(=O)C1CCN(S(C)(=O)=O)c2cc(Cl)ccc2O1)c1ccccc1` (centres undefined) the figure was 935 s; with `COC(=O)c1[nH]c(C)c(C(=O)C(C)N(C(=O)c2ccccc2)C2CCCCC2)c1C` (centres undefined), 941 s. In turn, `COc1cccc(-c2nnc(Cc3nc(-c4cccc(Br)c4)no3)o2)c1` had an RP-LC retention time of 1090 s. For `CCc1[nH]nc(S(=O)(=O)N2CCN(c3ccccn3)CC2)c1C(=O)OC` the value was 560 s; for `C=CCNC(=O)C1CCN(Cc2noc(-c3ccc(F)cc3)n2)CC1`, 613 s; for `c1cc(N2CCSCC2)ncc1-c1noc(CN2CCSCC2)n1`, 815 s. With `COC(=O)c1ccc(NC(=O)CSc2nnc(C)c3cnn(-c4ccccc4)c23)cc1` the figure was 705 s. `COc1ccc(OCc2nnc3sc(-c4ccncc4)nn23)cc1` yielded an RP-LC retention time of 710 s. For `CCOc1ccc(NC(=O)c2c(C)sc3ncnc(N4CCCC(C)C4)c23)cc1` (centres undefined) the value was 1200 s; for `CCOC(=O)C1CCN(c2cc3c(cc2NC(=O)NC2CCCC2)n(C)c(=O)n3C)CC1`, 777 s; for `CCNC(=O)C(=O)NCC(c1ccc2c(c1)CCCN2C)N1CCCCC1` (centres undefined), 649 s. With `Cc1ccn2c(NC(=O)/C=C/c3ccccc3)c(-c3ccccc3)nc2c1` the figure was 703 s; with `Cc1cc(=O)n(CCc2ccccc2)c(N2CCSCC2)n1`, 897 s. With `O=C(COc1ccccc1)Nc1c(C(=O)N2CCN(c3ccccn3)CC2)oc2ccccc12` the figure was 760 s; with `O=C(NCc1ccccc1)c1csc(Nc2ccncn2)n1`, 687 s; with `O=C(Nc1cccnc1)C1CCc2nc(N3CCCCC3)ncc2C1` (centres undefined), 583 s. `O=S1(=O)C[C@H](N2CCN(c3ncccn3)CC2)[C@@H](S(=O)(=O)c2cccs2)C1` came in with an RP-LC retention time of 719 s. `CN1C(=O)Cc2cc(S(=O)(=O)CCC(=O)N3CCN(c4ccccn4)CC3)ccc21` showed an RP-LC retention time of 902 s. Compound `Cc1cc(=O)n(CC(=O)Nc2cc(F)ccc2C)c(N2CCCCC2)n1` yielded an RP-LC retention time of 699 s. For the compound `Cc1nc(SCC(=O)NCc2ccccc2Cl)cc(-c2ccccn2)n1`, the RP-LC retention time was 848 s.

`COC(=O)c1ncn2c1C(=O)N(Cc1ccccc1Cl)C(C)(C(=O)NCc1ccccc1)C2` (centres undefined) had an RP-LC retention time of 762 s. For `O=C(C1CCOC1)N1CCC2(CC1)NCCc1c2[nH]c2ccccc12` (centres undefined) the value was 608 s; for `Cc1ccccc1NC(=O)Cn1nc2c(N(C)C3CCCCC3)nccn2c1=O`, 745 s. For `CCCN1C(=O)COc2ccc(-c3csc(NC(=O)c4ccc(OC)cc4)n3)cc21` the value was 1040 s. On to `Cc1cc(-c2nnc(-c3ccccc3)o2)c(C)n1CC(=O)NCc1ccc(F)cc1F`, for which the RP-LC retention time came out at 934 s. With `CCNC(=O)N(CC(=O)N1CCc2sccc2C1COc1ccc(C)cc1)CC1CC1` (centres undefined) the figure was 935 s; with `Cc1sc(NC(=O)c2cccnc2)nc1-c1ccc2c(c1)N(C)C(=O)CO2`, 754 s.

As for `CCN1C(=O)c2cccnc2Sc2cc(NC(=O)c3cccc(C)c3)ccc21`, the RP-LC retention time was 870 s. For `CCc1cc(=O)n(CC(=O)N2CCc3ccccc32)c(-c2ccccc2)n1` the value was 1170 s; for `COc1nn(C)cc1C(=O)Nc1nc(-c2cc(Cl)sc2Cl)cs1`, 1210 s. For `CCCn1cc(S(=O)(=O)NCc2ccc(C)c(C)c2)c2cccnc21` the value was 984 s; for `COc1cc(-c2ccc(C)cc2)nc2ccc(NC(=O)c3ccco3)cc12`, 713 s. In the case of `Cc1cc(=O)n(CC(=O)Nc2ccc(F)cc2)c(N2CCN(c3ccccc3)CC2)n1`, the RP-LC retention time came out at 828 s. Take `CC(=O)c1ccc(NC(=O)Cc2csc3nc(-c4ccc(C)c(C)c4)cn23)cc1`: the RP-LC retention time turned out to be 795 s. `CC(NC(=O)C(=O)NCC1CCN(C(=O)NC(C)(C)C)CC1)c1ccccc1` (centres undefined) yielded an RP-LC retention time of 749 s.

For the compound `CC(C)CC(NC(=O)Cc1ccccc1F)C(=O)Nc1nc2ccccc2[nH]1` (centres undefined), the RP-LC retention time is 740 s. With `CC(=O)Nc1ccc(NC(=O)CSc2ccc(N3CCCC(C(=O)NC4CC4)C3)nn2)cc1` (centres undefined) the figure was 584 s; with `CCOC(=O)c1ccc(NC(=O)Cn2c(=O)nc(N3CCCC(C)C3)c3ccccc32)cc1` (centres undefined), 872 s; with `O=C(NCCN1CCOCC1)C1CCc2sc(C(=O)N3CCCCC3)cc2C1` (centres undefined), 563 s.

`O=C(Nc1cc(-c2cccc(Cl)c2)no1)C1CCCN(c2ncnc3c2nc2n3CCCCC2)C1` (centres undefined) showed an RP-LC retention time of 1080 s. As for `COCCNC(=O)c1nnn(Cc2ccc(Cl)cc2)c1-n1cccc1`, the RP-LC retention time was 890 s. With `CCC1CCCCN1c1nc(-c2ccc([N+](=O)[O-])cc2)nc2ccccc12` (centres undefined) the figure was 1030 s; with `COc1ccc2c(c1)c(CN1CCC(C(=O)NCCCN3CCc4ccccc4C3)CC1)cn2C`, 565 s. `Cc1ccc(CNC(=O)C2(C)CCCN(C(=O)c3cccc(Br)c3)C2)cc1` (centres undefined) returned an RP-LC retention time of 960 s. For `O=C(NC1CCCCCCC1)C1CCCN(C(=O)Cc2cccc3ccccc23)C1` (centres undefined) the value was 1060 s; for `N#Cc1ccc(-c2nc(C3CC(=O)N(c4ccc(Cl)cc4)C3)no2)cc1` (centres undefined), 996 s; for `Cc1cccc(-n2nc3c(c2-n2cccc2)CN(C(=O)c2snnc2C)C3)c1`, 894 s. For the compound `O=C(CN1CCN(C(=O)N2CCCCC2)CC1)Nc1cc(Cl)ccc1Cl`, the RP-LC retention time came to 675 s. With `N#C/C(=C\c1ccc2ccccc2c1)C(=O)c1ccccc1` the figure was 1090 s. As to `COCCCNC(=O)C1CCCN(c2nnc(C)c3c(C)n(-c4ccc(OC)cc4)nc23)C1` (centres undefined), the RP-LC retention time is 633 s.

`CCOc1ccc(S(=O)(=O)Nc2ccc(-c3cn4ccccc4n3)cc2)cc1` displayed an RP-LC retention time of 661 s. With `O=C(Nc1cccc(Cl)c1)C1CCCN(c2nc3ccsc3c(=O)n2Cc2ccc(F)cc2)C1` (centres undefined) the figure was 1110 s; with `Cn1c(C(=O)NCCc2c[nH]c3ccccc23)cc2sccc21`, 916 s.
